Data as given in PubChem BioAssay (NCI).
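Dose response: 5 concentrations. Exposure: 48 h. Format: 96-well plates. Endpoint: linear interpolation; highest concentration if not reached. The concentration for full growth arrest is given as TGI.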

Key:
Test in all cases: inhibition of tumour cell growth, NCI panel, 48 h
[1] = tested on: 786-0 renal
[2] = tested on: A498 renal
[3] = tested on: A549 NSCLC
[4] = tested on: ACHN renal
[5] = tested on: CAKI-1 renal
[6] = tested on: CCRF-CEM leukemia
[7] = tested on: COLO 205 colon
[8] = tested on: DLD-1 colon
[9] = tested on: DMS 273 small cell lung
[10] = tested on: EKVX NSCLC
[11] = tested on: HCC-2998 colon
[12] = tested on: HCT-116 colon
[13] = tested on: HCT-15 colon
[14] = tested on: HL-60(TB) leukemia
[15] = tested on: HOP-62 NSCLC
[16] = tested on: HOP-92 NSCLC
[17] = tested on: HT29 colon
[18] = tested on: IGROV1 ovarian
[19] = tested on: K-562 leukemia
[20] = tested on: KM20L2 colon
[21] = tested on: LOX IMVI melanoma
[22] = tested on: LXFL 529 NSCLC
[23] = tested on: M14 melanoma
[24] = tested on: M19-MEL melanoma
[25] = tested on: MALME-3M melanoma
[26] = tested on: MOLT-4 leukemia
[27] = tested on: NCI-H226 lung
[28] = tested on: NCI-H23 lung
[29] = tested on: NCI-H460 lung
[30] = tested on: NCI-H522 lung
[31] = tested on: OVCAR-3 ovarian
[32] = tested on: OVCAR-4 ovarian
[33] = tested on: OVCAR-8 ovarian
[34] = tested on: RXF 393 renal
[35] = tested on: SF-268 CNS
[36] = tested on: SF-295 CNS
[37] = tested on: SF-539 CNS
[38] = tested on: SK-MEL-28 melanoma
[39] = tested on: SK-MEL-5 melanoma
[40] = tested on: SK-OV-3 ovarian
[41] = tested on: SN12C renal
[42] = tested on: SNB-19 CNS
[43] = tested on: SNB-75 CNS
[44] = tested on: SNB-78 CNS
[45] = tested on: SR leukemia
[46] = tested on: SW-620 colon
[47] = tested on: TK-10 renal
[48] = tested on: U251 CNS
[49] = tested on: UACC-257 melanoma
[50] = tested on: UACC-62 melanoma
[51] = tested on: UO-31 renal
[52] = tested on: XF 498 CNS
[53] = tested on: DMS 114 small cell lung
[54] = tested on: KM12 colon
[55] = tested on: OVCAR-5 ovarian
[56] = tested on: SK-MEL-2 melanoma
[57] = tested on: RPMI-8226 leukemia
[58] = tested on: HOP-18 NSCLC

Measured: TGI

Cc1cc(=O)[nH]c(CNC(=O)c2cccc3ccccc23)n1
> 100 µM: [1] | [2] | [3] | [4] | [5] | [6] | [7] | [8] | [9] | [10] | [11] | [12] | [13] | [14] | [15] | [16] | [17] | [18] | [19] | [20] | [21] | [22] | [23] | [24] | [25] | [26] | [27] | [28] | [29] | [30] | [31] | [32] | [33] | [34] | [35] | [36] | [37] | [38] | [39] | [40] | [41] | [42] | [43] | [44] | [45] | [46] | [47] | [48] | [49] | [50] | [51] | [52]

CC12Oc3ccc4ccccc4c3C1c1c(ccc3ccccc13)O2 (stereo unspecified)
> 100 µM: [1] | [3] | [4] | [5] | [6] | [7] | [8] | [53] | [9] | [10] | [12] | [16] | [17] | [18] | [19] | [54] | [20] | [21] | [22] | [23] | [24] | [25] | [26] | [27] | [28] | [29] | [30] | [31] | [32] | [55] | [33] | [34] | [35] | [36] | [37] | [56] | [38] | [39] | [40] | [41] | [42] | [43] | [44] | [45] | [46] | [47] | [48] | [50] | [51] | [52]

NC(N)=NS(=O)(=O)c1ccc(Nc2c3ccccc3nc3c(C(=O)N4CCN(CCO)CC4)ccc(Cl)c23)cc1
> 100 µM: [2] | [3] | [4] | [5] | [6] | [7] | [8] | [53] | [11] | [12] | [13] | [14] | [15] | [16] | [17] | [18] | [19] | [54] | [20] | [23] | [24] | [25] | [26] | [27] | [28] | [29] | [31] | [32] | [55] | [33] | [57] | [34] | [35] | [36] | [37] | [56] | [38] | [39] | [40] | [41] | [42] | [43] | [44] | [47] | [48] | [49] | [50] | [51] | [52]

CC1=C(C)C(=O)c2c(cc3c4ccccc4ccn23)C1=O
> 100 µM: [1] | [3] | [4] | [7] | [8] | [53] | [9] | [10] | [13] | [58] | [15] | [17] | [18] | [19] | [54] | [20] | [21] | [23] | [24] | [25] | [26] | [27] | [28] | [29] | [30] | [31] | [33] | [57] | [34] | [36] | [37] | [56] | [38] | [39] | [40] | [41] | [42] | [43] | [46] | [47] | [48] | [49] | [50] | [51] | [52]
